# Measured values from BindingDB's records for doi:10.1016/s0022-2836(03)00862-3 (Morphochem, 2003).
# Target: Methionine aminopeptidase (Staphylococcus aureus (strain MW2), UniProt P0A079)
# Assay: MetAP Inhibition Assay
# Conditions: pH 7.5; 22 °C
# Method: The MetAP reaction with Co2+ as a cofactor is coupled to a prolyl aminopeptidase (ProAP) using Met-Pro-p-nitroanilide as substrate. MetAP-catalyzed cleavage of the N-terminal methionine produces prolyl-p-nitroanilide, which is rapidly hydrolyzed by ProAP to release a chromogenic product. This allows the MetAP reaction to be continuously monitored at 405 nm on a UVVIS spectrophotometer. The initial rate was calculated from the early part of the reaction progress curve (<5 min). Activity assays were performed in triplicate using eight to 16 concentrations of substrate or inhibitor.
row,IC50 [nM],SMILES
1,43.7,"CSCC[C@H](N)c1nnc(SCc2ccccc2)[nH]1 [1,2,4-triazole derivative.]"
2,> 100000,"Cn1cnnc1SCc1ccccc1 [1,2,4-triazole derivative.]"
3,599,"Nc1n[nH]c(SCc2ccccc2)n1 [1,2,4-triazole derivative.]"
